According to patent US20250326712A1, “IONIZABLE LIPIDS” (eTheRNA immunotherapies NV, priority 2022, published 2025):

Assays:
[1] = LNP size and polydispersity measured with a Zetasizer Nano; type: physicochemical; settings: LNP: ionizable lipid/DSPC/cholesterol/DMG-PEG2000 about 50/10/38.5/1.5, eGFP mRNA, dialyzed against TBS; for size: in nm (unit assumed)
Experimental: (§1) Lipid based nanoparticles were produced by microfluidic mixing of an mRNA solution in sodium acetate buffer (100 mM, pH 4) and lipid solution in a 2:1 volume ratio at a speed of 16 mL/min using the NanoAssemblr Benchtop (Precision Nanosystems). LNPs were produced at a standard molar ratio ionizable lipid/DSPC (Avanti Polar Lipids)/cholesterol (Sigma)/DMG-PEG2000 (Avanti Polar Lipids) of about 50/10/38.5/1.5. eGFP mRNA was encapsulated in all LNPs as reporter mRNA, at a mRNA/ionizable lipid molar ratio of 1/10. LNPs were dialyzed against TBS (10000 times more TBS volume than LNP volume) using slide-a-lyzer dialysis cassettes (20K MWCO, 3 mL, ThermoFisher). Size, polydispersity and zeta potential were measured with a Zetasizer Nano (Malvern). mRNA encapsulation was measured by standard Ribogreen RNA assay (Invitrogen).

[2] = mRNA encapsulation by Ribogreen RNA assay; type: physicochemical; settings: LNP: ionizable lipid/DSPC/cholesterol/DMG-PEG2000 about 50/10/38.5/1.5, eGFP mRNA, mRNA/ionizable lipid 1/10
Experimental: as §1

hEPO expression = assay: In vivo hEPO expression after IV mRNA LNP injection (hEPO ELISA); set-up: species or system BALB/c mice; settings: hEPO mRNA LNPs, 10 μg mRNA intravenous in tail vein, different timepoints, FIGS. 3 A & B
Experimental: LNPs were produced at a standard molar ratio ionizable lipid/DSPC/cholesterol/DMG-PEG2000 of about 50/10/38.5/1.5. Human erythropoietin (hEPO) mRNA was encapsulated in all LNPs at an mRNA/ionizable lipid molar ratio of 1/10.
BALB/c mice (female, 6 weeks old mice) were injected intravenously in the tail vein with 200 μl of the respective mRNA LNPs (10 μg mRNA, TBS buffer) or control buffer. Blood was collected from the submandibular vein at different timepoints after which hEPO concentrations were determined using hEPO ELISA assay kit (catalog #BMS2035-2—Thermofisher Scientific), according to the manufacturer's instructions.

Compound | PDI [1] | size [1] | % encap [2] [%] | hEPO expression (serum concentration, area under curve) (hEPO expression)
CCCCCC/C=C\COC(=O)CCCCCCCN(CCCCCCCC(=O)OC(CCCCCCCC)CCCCCCCC)C(=O)OCCSSCCOC(=O)NCCN(C)C [ETG-51] | 0.119 | 111.97 | 96 | –
CCCCCCCCCOC(=O)CCCCCCCN(CCCCCCCC(=O)OC(CCCCCCCC)CCCCCCCC)C(=O)OCCSSCCOC(=O)NCCN(C)C [ETG-53] | 0.085 | 103.23 | 97 | higher hEPO expression compared to ETG-23 control
CCCCCCCCC(CC)OC(=O)CCCCCCCN(CCCCCCCC(=O)OC(CCCCCCCC)CCCCCCCC)C(=O)OCCSSCCOC(=O)NCCN(C)C (stereo not shown) [ETG-55] | 0.123 | 93.73 | 96 | –
CCCCCCCCC(CCCCCCCC)OC(=O)CCCCCCCN(CCCCCC(=O)OC(CCCCCCCC)CCCCCCCC)C(=O)OCCSSCCOC(=O)NCCN(C)C [ETG-57] | 0.114 | 109.10 | 95 | –

The next lines start with results.

PDI [1] | size [1] | % encap [2] [%] | Compound | hEPO expression (serum concentration, area under curve) (hEPO expression)
0.082 | 75.97 | 97 | CCCCCCCC/C=C\CCCCCCCC(=O)OCC(CNC(=O)OCCSSCCOC(=O)NCCN1CCCCCC1)OC(=O)CCCCCCC/C=C\CCCCCCCC (stereo not shown) [ETG-23, reference compound] | –
0.099 | 90.70 | 97 | CCCCCC/C=C\COC(=O)CCCCCCCN(CCCCCCCC(=O)OC(CCCCCCCC)CCCCCCCC)C(=O)OCCSSCCOC(=O)NCCN1CCCCCC1 [ETG-52] | –
0.150 | 90.30 | 98 | CCCCCCCCCOC(=O)CCCCCCCN(CCCCCCCC(=O)OC(CCCCCCCC)CCCCCCCC)C(=O)OCCSSCCOC(=O)NCCN1CCCCCC1 [ETG-54] | –
0.120 | 86.26 | 98 | CCCCCCCCC(CC)OC(=O)CCCCCCCN(CCCCCCCC(=O)OC(CCCCCCCC)CCCCCCCC)C(=O)OCCSSCCOC(=O)NCCN1CCCCCC1 (stereo not shown) [ETG-56] | –
0.086 | 101.50 | 98 | CCCCCCCCC(CCCCCCCC)OC(=O)CCCCCCCN(CCCCCC(=O)OC(CCCCCCCC)CCCCCCCC)C(=O)OCCSSCCOC(=O)NCCN1CCCCCC1 [ETG-58] | –
